Patent publication US20230028441A1, “NOVEL HETEROARYL-TRIAZOLE COMPOUNDS AS PESTICIDES” (Bayer Aktiengesellschaft, priority 2019, published 2023)

Key:
Format in all cases: in vivo
[1] = system: larvae of the southern green stink bug (Nezara viridula); test: Nezara viridula spray test; details: in Hordeum vulgare, 96 h
Method: (§1) Solvent: 78.0 parts by weight of acetone • • 1.5 parts by weight of dimethylformamide
(§2) Emulsifier: alkylarylpolyglycol ether
(§3) To produce a suitable preparation of active compound, 1 part by weight of active compound is mixed with the stated amount of solvent, and the concentrate is diluted with water, containing an emulsifier concentration of 1000 ppm, to the desired concentration. Further test concentrations are prepared by dilution with emulsifier containing water.
Barley plants (Hordeum vulgare) infested with larvae of the southern green stink bug (Nezara viridula) are sprayed with a test solution containing the desired concentration of the active ingredient.
After 4 days mortality in % is determined. 100% means all the stink bugs have been killed; 0% means none of the stink bugs have been killed.

[2] = system: adult engorged female ticks (Rhipicephalus microplus); test: Rhipicephalus (Boophilus) microplus injection test; details: 168 h, egg deposition after 7 days, read-out: efficacy (infertile eggs); for pest or weed control at 0.004 mg: 4 μg/animal; for pest or weed control at 0.02 mg: 20 μg/animal
Method: (§4) Solvent: dimethyl sulfoxide
To produce a suitable preparation of active compound, 10 mg of active compound are dissolved in 0.5 mL solvent, and the concentrate is diluted with solvent to the desired concentration.
Five adult engorged female ticks (Rhipicephalus microplus) are injected with 1 μL compound solution into the abdomen. The ticks are transferred into replica plates and incubated in a climate chamber.
After 7 days egg deposition of fertile eggs is monitored. Eggs where fertility is not visible are stored in a climate chamber till hatching after about 42 days. An efficacy of 100% means all eggs are infertile; 0% means all eggs are fertile.

[3] = system: larvae of the banded cucumber beetle (Diabrotica balteata); test: Diabrotica balteata spray test; details: 168 h, after 7 days, wheat seeds, read-out: efficacy (seedlings grown up); for pest or weed control at 32 µg/disc, 100 g/ha: 100 g/ha (=32 μg/well)
Method: as §1, §2, §3
Soaked wheat seeds (Triticum aestivum) are placed in a multiple well plate filled with agar and some water and are incubated for 1 day to germinate (5 seeds per well). The germinated wheat seeds are sprayed with a test solution containing the desired concentration of the active ingredient. Afterwards each unit is infected with 10-20 larvae of the banded cucumber beetle (Diabrotica balteata).
After 7 days efficacy in % is determined. 100% means all the seedlings have grown up like in the untreated, uninfected control; 0% means none of the seedlings have grown.

[4] = system: cattle tick larvae (Rhipicephalus microplus), strain Parkhurst, resistant against synthetic pyrethroids; test: Rhipicephalus (Boophilus) microplus in-vitro contact test, larval cattle tick; details: 5 μg/cm^2 (=500 g/ha), after 48 hours, read-out: efficacy (larvae dead or moribund)
Method: 9 mg compound is solved in 1 mL acetone and diluted with acetone to the desired concentration. 250 μL of the test solution is filled in 25 mL glass test tubes and homogeneously distributed on the inner walls by rotation and tilting on a shaking device (2 h at 30 rpm). With a compound concentration of 900 ppm, an inner surface of 44.7 cm^2 and a homogeneous distribution, a dose of 5 μg/cm^2 is achieved.
After the solvent has evaporated, each test tube is filled with 20-50 cattle tick larvae (Rhipicephalus microplus), closed with a perforated lid and incubated in a horizontal position at 85% relative humidity and 27° C. in an incubator. After 48 hours efficacy is determined. The larvae are patted on the ground of the tubes and negative geotactic behaviour is recorded.
An efficacy of 100% means all larvae are dead or moribund; 0% means no larvae are dead or moribund.

[5] = system: adult unfed cat fleas (Ctenocephalides felis); test: Ctenocephalides felis oral test; details: 48 h, 100 ppm in cattle blood, after 2 days
Method: as §4
To produce a suitable preparation of active compound, 10 mg of active compound are dissolved in 0.5 mL solvent, and the concentrate is diluted with cattle blood to the desired concentration.
Approximately 20 adult unfed cat fleas (Ctenocephalides felis) are placed in flea chambers. The blood chamber, sealed with parafilm on the bottom, are filled with cattle blood supplied with compound solution and placed on the gauze covered top of the flea chamber, so that the fleas are able to suck the blood. The blood chamber is heated to 37° C. whereas the flea chamber is kept at room temperature.
After 2 days mortality in % is determined. 100% means all the fleas have been killed; 0% means none of the fleas have been killed.

[6] = system: fall armyworm larvae (Spodoptera frugiperda); test: Spodoptera frugiperda spray test (maize leaf sections); details: 168 h
Method: Solvent: 78.0 parts by weight acetone • 1.5 parts by weight dimethylformamide
as §2
as §3, with “solvents” for “solvent,”, “and” for “and the concentrate”
Maize (Zea mays) leaf sections are sprayed with a preparation of the active ingredient of the desired concentration. Once dry, the leaf sections are infested with fall armyworm larvae (Spodoptera frugiperda).
After 7 days mortality in % is determined. 100% means all caterpillars have been killed and 0% means none of the caterpillars have been killed.

Structure (SMILES)	mortality at 500 g/ha [1] [%]	pest or weed control at 0.004 mg [2] [%]	pest or weed control at 0.02 mg [2] [%]	mortality at 100 ppm [5] [%]	pest or weed control at 32 µg/disc, 100 g/ha [3] [%]	mortality at 100 g/ha [6] [%]	further results
CC(NC(=O)c1cc(Cl)cc(S(C)(=O)=O)c1)c1nc(N(S(C)(=O)=O)S(C)(=O)=O)nn1-c1ccc(Cl)cn1 (racemic) [I-026, N-[1-[5-[bis(methylsulfonyl)amino]-2-(5-chloro-2-pyridyl)-1,2,4-triazol-3-yl]ethyl]-3-chloro-5-methylsulfonyl-benzamide]	90	100	100				pest or weed control at 160 µg/disc, 500 g/ha ([3]; 500 g/ha (=160 μg/well)): 100%
CC(NC(=O)c1cc(Br)cc(Br)c1)c1nc(NC(=O)OC(C)(C)C)nn1-c1ccc(C(=O)N2CCOCC2)cn1 (racemic) [I-106, tert-butyl N-[5-[1-[(3,5-dibromobenzoyl)amino]ethyl]-1-[5-(morpholine-4-carbonyl)-2-pyridyl]-1,2,4-triazol-3-yl]carbamate]							pest or weed control at 5 µg/cm2 [4]: 80%
CC(NC(=O)c1cc(Cl)cc(S(C)(=O)=O)c1)c1nc(N)nn1-c1ncccn1 (stereo not drawn) [I-008]		100		100			
CC(NC(=O)c1cc(Cl)cc(Cl)c1)c1nc(CS(C)(=O)=O)nn1-c1ccc(Cl)cn1 (stereo not drawn) [I-028]		100	100	100			
CC(NC(=O)c1cncc(C(F)(F)F)c1)c1nc(CS(C)(=O)=O)nn1-c1ccc(Cl)cn1 (stereo not drawn) [I-030]		100	100	100			
CC(NC(=O)c1cc(Cl)nc(C(F)(F)F)c1)c1nc(-c2cnccn2)nn1-c1ccc(Cl)cn1 (stereo not drawn) [I-037]		100	100	90			
CC(NC(=O)c1cncc(C(F)(F)F)c1)c1nc(-c2cnccn2)nn1-c1ccc(Cl)cn1 (stereo not drawn) [I-038]		100	100	100			
CC(NC(=O)c1cc(Cl)cc(S(C)(=O)=O)c1)c1nc(-c2cnccn2)nn1-c1ccc(Cl)cn1 (stereo not drawn) [I-039]		100	80	100			
CC(NC(=O)c1cncc(C(F)(F)F)c1)c1nc(-c2ccc(Cl)nc2)nn1-c1ncccn1 (stereo not drawn) [I-042]			100	90			
CC(NC(=O)c1cc(Cl)nc(C(F)(F)F)c1)c1nc(-c2cnccn2)nn1-c1ncccn1 (stereo not drawn) [I-044]		100	100	100			
CC(NC(=O)c1cc(Cl)nc(Cl)c1)c1nc(-c2cnccn2)nn1-c1ncccn1 (stereo not drawn) [I-049]		80	100	100			
CC(NC(=O)c1cncc(C(F)(F)F)c1)c1nc(-c2cnccn2)nn1-c1ncccn1 (stereo not drawn) [I-050]		100	100	100			
CC(NC(=O)c1cc(Cl)cc(S(C)(=O)=O)c1)c1nc(SC(F)(C(F)(F)F)C(F)(F)F)nn1-c1ccc(Cl)cn1 (stereo not drawn) [I-069]		100	100				pest or weed control at 5 µg/cm2 [4]: 100%
CC(NC(=O)c1cc(Cl)cc(C(F)(F)F)c1)c1nc(SC(F)(C(F)(F)F)C(F)(F)F)nn1-c1ccc(Cl)cn1 (stereo not drawn) [I-070]		100	100				pest or weed control at 5 µg/cm2 [4]: 100%
CC(NC(=O)c1cc(C(F)(F)F)cc(C(F)(F)F)c1)c1nc(NC(=O)OC(C)(C)C)nn1-c1ccc(C(=O)N2CCOCC2)cn1 (stereo not drawn) [I-113]					100		pest or weed control at 5 µg/cm2 [4]: 90%
CC(NC(=O)c1cc(OC(F)(F)F)cc(C2CC2)c1)c1nc(N)nn1-c1ccc(C#N)cn1 (stereo not drawn) [I-122]					100		pest or weed control at 5 µg/cm2 [4]: 100%

Structure (SMILES)	mortality at 500 g/ha [1] [%]	pest or weed control at 0.004 mg [2] [%]	pest or weed control at 0.02 mg [2] [%]	mortality at 100 ppm [5] [%]	pest or weed control at 32 µg/disc, 100 g/ha [3] [%]	mortality at 100 g/ha [6] [%]	further results
CC(=O)Nc1nc(C(C)NC(=O)c2cc(OC(F)(F)F)cc(C3CC3)c2)n(-c2ccc(C#N)cn2)n1 (stereo not drawn) [I-124]					100	100	pest or weed control at 5 µg/cm2 [4]: 100%
CC(NC(=O)c1cc(Cl)cc(C(C)(C)C#N)c1)c1nc(N(C)C)nn1-c1ccc(C#N)cn1 (stereo not drawn) [I-156]	100				100	100	
CC(NC(=O)c1cc(C(F)(F)F)cc(C(F)(F)F)c1)c1nc(N2CCOCC2)nn1-c1ccc(C#N)cn1 (stereo not drawn) [I-158]					100	100	pest or weed control at 5 µg/cm2 [4]: 100%
CC(NC(=O)c1cc(OC(F)(F)F)cc(C2CC2)c1)c1nc(N2CCOCC2)nn1-c1ccc(C#N)cn1 (stereo not drawn) [I-161]					100		pest or weed control at 5 µg/cm2 [4]: 100%
CC(NC(=O)c1cc(C(F)(F)F)cc(C(F)(F)F)c1)c1nc(N(C)C)nn1-c1ccc(C#N)cn1 (stereo not drawn) [I-162]	100				100	100	
CC(NC(=O)c1cc(OC(F)(F)F)cc(C2CC2)c1)c1nc(N(C)C)nn1-c1ccc(C#N)cn1 (stereo not drawn) [I-164]	100				100	100	
CC(NC(=O)c1cc(OC(F)(F)F)cc(C2CC2)c1)c1nc(N(C)C)nn1-c1ncc(Cl)cn1 (stereo not drawn) [I-166]	100				100	100	
CSc1nc(C(C)NC(=O)c2cc(OC(F)(F)F)cc(S(C)(=O)=O)c2)n(-c2ncc(C#N)s2)n1 (stereo not drawn) [I-167, N-{1-[1-(5-cyano-1,3-thiazol-2-yl)-3-(methylsulfanyl)-1H-1,2,4-triazol-5-yl]ethyl}-3-(methylsulfonyl)-5-(trifluoromethoxy)benzamide]	100				100	100	
CC(NC(=O)c1cc(Cl)cc(S(C)(=O)=O)c1)c1nc(N(C)C)nn1-c1ncc(Cl)cn1 (stereo not drawn) [I-171]	100					100	
C[C@H](NC(=O)c1cc(C(F)(F)F)cc(C(F)(F)F)c1)c1nc(N2CCCC2)nn1-c1ncccn1 [I-190]	100				100	100	
CC(NC(=O)c1cc(OC(F)(F)F)cc(S(=O)(=O)C(C)C)c1)c1nc(N(C)C)nn1-c1ncc(Cl)cn1 (stereo not drawn) [I-191]	90				100		
CC(NC(=O)c1cc(OC(F)(F)F)cc(S(=O)(=O)C2CC2)c1)c1nc(N(C)C)nn1-c1ncc(Cl)cn1 (stereo not drawn) [I-193]	100				100	100	
CCS(=O)(=O)c1cc(OC(F)(F)F)cc(C(=O)NC(C)c2nc(N(C)C)nn2-c2ncc(Cl)cn2)c1 (stereo not drawn) [I-194]	100				100	100	
C[C@H](NC(=O)c1cc(OC(F)(F)F)cc(C2CC2)c1)c1nc(N2CCCC2)nn1-c1ncccn1 [I-203]	100				100	100	
C[C@H](NC(=O)c1cc(Cl)cc(C(C)(C)C#N)c1)c1nc(N2CCOCC2)nn1-c1ccc(C#N)cn1 [I-204]	100					100	
